Measured values from patent publication US20060134102A1, “Lymphotoxin beta receptor agents in combination with chemotherapeutic agents” (Biogen Idec MA Inc., priority 2002, published 2006).
Values joined by “and” are separate entries in the source; they are usually repeats but may differ in a detail not shown here. Equal values may be shown once.

System: WiDr human colorectal adenocarcinoma
Experiment: WiDr xenograft model: growth of established WiDr human colorectal tumors in athymic nude mice (tumor volume/weight, % T/C, Fa, Combination Index)
Details: for Fractional Inhibition of Tumor Volume (Fa), Ave. / Tumor Volume, Ave.: group average; for Volume Decrease: vs control
[1] = Gem 12.5 mg/kg, day 28, one line per animal, listed as Gem
[2] = Gem 25 mg/kg, day 28, one line per animal, listed as Gem
[3] = Gem 50 mg/kg, day 28, one line per animal, listed as Gem
[4] = Day 34, individual animals, hCBE 50
[5] = Day 34, individual animals, hCBE 500
[6] = hCBE 50 μg, day 28, one line per animal
[7] = hCBE 100 μg, day 28, one line per animal
[8] = huCBE11 50 μg, day 21, listed as hCBE

## Nc1ccn([C@@H]2O[C@H](CO)[C@@H](O)C2(F)F)c(=O)n1 [Gemcitabine, gemcitabine, reference compound]
Gem 12.5 mg/kg, day 28
  Fractional Inhibition of Tumor Volume (Fa), Ave.: 0.403
  Tumor Volume, Ave.: 479.5
[1]
  Individual Fractional Inhibition of Tumor Volume (Fa): 0.571 and 0.001 and 0.524 and 0.490 and 0.427 and 0.479 and 0.421 and 0.632 and −0.058 and 0.543
  Individual Tumor Volumes: 344.8 and 802.2 and 382.6 and 409.5 and 459.9 and 418.6 and 465.3 and 295.5 and 849.7 and 367.1
Gem 25 mg/kg, day 28
  Fractional Inhibition of Tumor Volume (Fa), Ave.: 0.603
  Tumor Volume, Ave.: 319.0
[2]
  Individual Fractional Inhibition of Tumor Volume (Fa): 0.678 and 0.561 and 0.657 and 0.440 and 0.505 and 0.574 and 0.712 and 0.703 and 0.559 and 0.641
  Individual Tumor Volumes: 258.5 and 352.8 and 275.7 and 450.0 and 397.8 and 342.6 and 230.9 and 238.8 and 354.3 and 288.2
Gem 50 mg/kg, day 28
  Fractional Inhibition of Tumor Volume (Fa), Ave.: 0.594
  Tumor Volume, Ave.: 326.0
[3]
  Individual Fractional Inhibition of Tumor Volume (Fa): 0.602 and 0.812 and 0.747 and 0.502 and 0.445 and 0.538 and 0.447 and 0.774 and 0.659 and 0.417
  Individual Tumor Volumes: 319.6 and 151.2 and 203.1 and 400.1 and 446.1 and 370.9 and 444.1 and 181.8 and 274.1 and 468.6
Gemcitabine 12.5 mg/kg given separately, day 28
  Fraction Affected: 0.403
Gemcitabine 12.5 mg/kg, day 28
  Tumor Volume: 479.5
  Volume Decrease: 323.7
Gemcitabine 25 mg/kg given separately, day 28
  Fraction Affected: 0.603
Gemcitabine 25 mg/kg, day 28
  Tumor Volume: 318.9
  Volume Decrease: 484.3
Gemcitabine 50 mg/kg, day 28
  Tumor Volume: 326.0
  Volume Decrease: 477.2
Gemcitabine combined with huCBE11 (0.568:1), day 28
  Median Effect Dose: 4.2 mg/kg
Gemcitabine given separately, day 28
  Median Effect Dose: 16.7 mg/kg
Gemcitabine 12.5 mg/kg, Day 41, separate study
  Inhibition of tumor growth vs vehicle control: No significant inhibition
Gemcitabine 25 mg/kg, Days 21 and 28
  % T/C: below 42%
Gemcitabine 50 mg/kg to […], Day 41
  Activity by NCI criteria (% T/C of 42 or less): inactive
Gemcitabine 50 mg/kg, Days 17 to 28
  % T/C: below 42%

## huCBE11: humanized anti-LT-β-R agonist antibody (LTβ receptor-activating mAb), described in WO 02/30986
Day 34, huCBE11 5 ug
  Fa (Fraction Affected): 0.256
  Tumor Volume: 1024.0
  Volume Decrease: 352.4
Day 34, huCBE11 50 ug
  Fa (Fraction Affected): 0.361
  Tumor Volume: 880.1
  Volume Decrease: 496.3
Day 34, huCBE11 500 ug
  Fa (Fraction Affected): 0.466
  Tumor Volume: 735.6
  Volume Decrease: 640.8
Day 34, huCBE11 Given Separately
  Median Effect Dose: 932.9 µg
Day 34, huCBE11 dose, Combined (0.333:1) with Taxol
  Median Effect Dose: 19.8 µg
[4]
  Individual Fractional Inhibition of Tumor Volume: 0.039 and 0.536 and 0.420 and 0.452 and 0.391 and 0.290 and 0.423 and 0.674 and −0.234 and 0.614
  Individual Tumor Volumes: 1322.2 and 638.5 and 798.8 and 754.3 and 838.2 and 976.8 and 794.0 and 448.6 and 1698.4 and 531.6
[5]
  Individual Fractional Inhibition of Tumor Volume: 0.174 and 0.360 and 0.502 and 0.529 and 0.688 and 0.717 and 0.395 and 0.607 and 0.230 and 0.454
  Individual Tumor Volumes: 1136.7 and 881.2 and 685.7 and 648.1 and 430.1 and 389.8 and 832.1 and 541.3 and 1059.8 and 751.2
All huCBE11 groups (500, 100, 50 μg), day 42
  Tumor weight vs vehicle control: statistically significantly lower
hCBE 50 μg, day 28
  Fractional Inhibition of Tumor Volume (Fa), Ave.: 0.442
  Tumor Volume, Ave.: 448.0
[6]
  Individual Fractional Inhibition of Tumor Volume (Fa): 0.467 and 0.547 and 0.564 and 0.463 and 0.456 and 0.350 and −0.060 and 0.245 and 0.827 and 0.562
  Individual Tumor Volumes: 428.2 and 363.5 and 350.4 and 431.3 and 437.1 and 521.8 and 851.1 and 606.1 and 138.7 and 352.2
hCBE 100 μg, day 28
  Fractional Inhibition of Tumor Volume (Fa), Ave.: 0.519
  Tumor Volume, Ave.: 386.1
[7]
  Individual Fractional Inhibition of Tumor Volume (Fa): 0.754 and −0.210 and 0.441 and 0.590 and 0.596 and 0.449 and 0.682 and 0.556 and 0.723 and 0.614
  Individual Tumor Volumes: 197.9 and 972.2 and 449.1 and 329.2 and 324.7 and 442.5 and 255.6 and 356.8 and 222.4 and 310.4
huCBE11 5 μg, day 21
  Fa (Fraction Affected), group mean: 0.265
  Tumor Volume, group mean: 319.0
  Volume Decrease vs control, group mean: 115.0
huCBE11 5 μg, day 28
  Fa: 0.143
  Tumor Volume: 688.4
  Volume Decrease: 114.8
huCBE11 5 μg, gemcitabine parallel study
  Inhibition of tumor growth: did not significantly inhibit tumor growth
huCBE11 50 μg given separately, day 28
  Fraction Affected: 0.442
huCBE11 50 μg, Day 41
  % T/C: 43.5%
huCBE11 50 μg, day 21
  Fa (Fraction Affected), group mean: 0.383
  Tumor Volume, group mean: 267.8
  Volume Decrease vs control, group mean: 166.2
[8]
  Fa, individual animals: 0.607 and 0.437 and 0.466 and 0.590 and 0.298 and 0.605 and 0.179 and −0.015 and 0.415 and 0.247
  Tumor volume, individual animals: 170.5 and 244.3 and 231.8 and 178.1 and 304.5 and 171.3 and 356.5 and 440.3 and 254.0 and 326.6
huCBE11 50 μg, day 28
  Tumor Volume: 448.0
  Volume Decrease: 355.2
huCBE11 50 μg, day 35
  Fa (fractional inhibition of tumor volume), group mean: 0.437
  Fa, individual animals: 0.723 and 0.666 and 0.660 and 0.636 and 0.318 and −0.502 and 0.321 and 0.473 and 0.743 and 0.329
  Tumor Volume, group mean: 633.2
  Tumor volume, individual animals: 311.9 and 375.4 and 381.9 and 409.6 and 766.4 and 1688.6 and 762.8 and 592.2 and 289.2 and 754.4
  Volume Decrease vs control, group mean: 490.8
huCBE11 50 μg, day 44
  Fa (fractional inhibition of tumor volume), group mean: 0.387
  Fa, individual animals: 0.656 and 0.434 and 0.559 and 0.498 and 0.143 and 0.591 and −0.316 and 0.381 and 0.406 and 0.516
  Tumor Volume, group mean: 869.7
  Tumor volume, individual animals: 487.5 and 802.7 and 624.9 and 712.0 and 1216.2 and 580.7 and 1866.3 and 878.7 and 842.6 and 686.0
  Volume Decrease vs control, group mean: 548.9
huCBE11 100 μg given separately, day 28
  Fraction Affected: 0.519
huCBE11 100 μg, Day 41
  % T/C: 40.0%
huCBE11 100 μg, day 28
  Tumor Volume: 386.1
  Volume Decrease: 417.1
huCBE11 100 μg, day 35
  Fa (fractional inhibition of tumor volume), group mean: 0.645
  Fa, individual animals: 0.762 and 0.814 and 0.781 and 0.739 and 0.750 and 0.344 and 0.593 and 0.696 and 0.119 and 0.848
  Tumor Volume, group mean: 399.5
  Tumor volume, individual animals: 267.9 and 208.9 and 245.8 and 293.4 and 281.4 and 737.5 and 457.4 and 341.5 and 990.1 and 171.4
  Volume Decrease vs control, group mean: 724.5
huCBE11 100 μg, gemcitabine parallel study
  Activity by NCI criteria (% T/C of 42 or less): active
huCBE11 500 μg and 50 μg groups, days 35 or 38 to 42
  % T/C: < 42%
huCBE11 500 μg and 100 μg groups, days 32 to 42
  % T/C: < 42%
huCBE11 500 μg, 100 μg, 50 μg, adriamycin parallel study
  Activity by NCI criteria: active
huCBE11 500 μg, Days 31 to 45
  % T/C: below 42%
huCBE11 500 μg, day 21
  Fa (Fraction Affected), group mean: 0.418
  Tumor Volume, group mean: 252.5
  Volume Decrease vs control, group mean: 181.5
huCBE11 500 μg, day 35
  Fa (fractional inhibition of tumor volume), group mean: 0.648
  Fa, individual animals: 1.000 and 0.750 and 0.305 and 0.758 and 0.522 and 0.756 and 0.672 and 0.670 and 0.307 and 0.736
  Tumor Volume, group mean: 396.0
  Tumor volume, individual animals: 0.1 and 280.9 and 781.0 and 272.3 and 537.5 and 273.7 and 368.7 and 370.6 and 778.7 and 296.8
  Volume Decrease vs control, group mean: 728.0
huCBE11 500 μg, day 44
  Fa (fractional inhibition of tumor volume), group mean: 0.567
  Fa, individual animals: 0.930 and 0.334 and 0.624 and 0.765 and 0.669 and 0.538 and 0.285 and 0.489 and 0.488 and 0.545
  Tumor Volume, group mean: 614.7
  Tumor volume, individual animals: 99.1 and 944.8 and 534.1 and 333.2 and 469.4 and 655.8 and 1014.0 and 725.3 and 726.2 and 645.6
  Volume Decrease vs control, group mean: 803.9
huCBE11, Camptosar parallel study
  Activity by NCI criteria (% T/C of 42 or less): active
huCBE11 combined with Camptosar (0.555:1), day 21
  Median Effect Dose: 10.2 µg
huCBE11 combined with Gemcitabine (0.568:1), day 28
  Median Effect Dose: 7.3 µg
huCBE11 given separately, day 21
  Median Effect Dose: 2933 µg
huCBE11 given separately, day 28
  Median Effect Dose: 81.1 µg
